{"source": "patent US20260337153A1", "about": "“IONIZABLE AMINE LIPIDS” (Intellia Therapeutics, Inc., priority 2023, published 2026)", "key": {"[1]": {"assay": "pKa of unformulated amine lipid by TNS fluorescence", "format": "physicochemical", "description": "The pKa of each amine lipid was determined according to the method in Jayaraman, et al. (Angew Chem Int Ed Engl 51(34), 2012, 8529-8533) with the following adaptations. The pKa was determined for unformulated amine lipid in ethanol. Lipid stock solutions (2.94 mM) were diluted into Sodium Phosphate Buffers (0.1 M, Boston Bioproducts) of different pH (pH-range: 4.5-9.0) yielding a final lipid concentration of approx. 100 μM. The test samples were supplemented with TNS {6-(p-Toluidino)-2-naphthalenesulfonic acid sodium salt}, incubated and the fluorescence intensity was measured using excitation and emission wavelengths of 321 nm and 448 nm, respectively. The recorded data were normalized and the respective pKa values were derived from sigmoidal fitting."}, "rat TTR gene": {"system": "rat TTR gene", "assay": "In vivo editing of TTR in rat liver after LNP delivery (NGS, % editing)", "parameters": "species or system rat (Sprague-Dawley)", "description": "LNPs were prepared using various amine lipids in a 4-component lipid system consisting of an ionizable lipid (e.g., an amine lipid), DSPC, cholesterol and a PEG lipid (e.g., PEG2K-DMG, C13 Ether, C14 Ether). In assays for percent liver editing in rats, Cas9 mRNA and chemically modified sgRNA targeting a rat sequence were formulated in LNPs, at either a 1:1 w/w ratio or a 1:2 w/w sgRNA:Cas9 mRNA ratio.\nThe lipid components were dissolved in 100% ethanol with the lipid component molar ratios described below. The chemically modified sgRNA and Cas9 mRNA were combined and dissolved in 25 mM citrate, 100 mM NaCl, pH 5.0, resulting in a concentration of total RNA cargo of approximately 0.45 mg/mL. The LNPs were formulated with an N:P ratio of about 6, with the ratio of chemically modified sgRNA:Cas9 mRNA at either a 1:1 or 1:2 w/w ratio as described below.\nThe LNPs were formed by an impinging jet mixing of the lipid in ethanol with two volumes of RNA solution and one volume of water. First, the lipid in ethanol is mixed through a mixing cross with the two volumes of RNA solution. Then, a fourth stream of water is mixed with the outlet stream of the cross through an inline tee. (See, e.g., WO2016010840, FIG. 2). The LNPs were held for 1 hour at room temperature, and further diluted with water (approximately 1:1 v/v). Diluted LNPs were buffer exchanged into 50 mM Tris, 45 mM NaCl, 5% (w/v) sucrose, pH 7.5 (TSS) and concentrated as needed by methods known in the art. The resulting mixture was then filtered using a 0.2 μm sterile filter. The final LNP was stored at 4° C. or −80° C. until further use.\nSprague-Dawley female rats, ranging from 6-10 weeks of age were used in each study. Animals were weighed and dosed based on individual body weight measured the morning of dosing. LNPs were dosed via the lateral tail vein in a volume of 2 mL per kilogram of animal body weight. The animals were periodically observed for adverse effects for at least 24 hours post dose.\nFor studies measuring in vivo editing in liver, Sprague-Dawley female rats were dosed at 0.1 mpk or 0.03 mpk, unless otherwise noted. Animals were euthanized at 6 or 7 days by carbon dioxide asphyxiation and a heart clip or by ex sanguination via cardiac puncture under isoflourane anesthesia. Blood was collected into serum separator tubes. Liver tissue was collected. Genomic DNA was isolated from the liver tissue for editing measurement by Next-Generation Sequencing (NGS).\nIn brief, to quantitatively determine the efficiency of editing at the target location in the genome, genomic DNA was isolated and deep sequencing was utilized to identify the presence of insertions and deletions introduced by gene editing.\nPCR primers were designed around the target site (e.g., TTR), and the genomic area of interest was amplified. Additional PCR was performed according to the manufacturer's protocols (Illumina) to add the necessary chemistry for sequencing. The amplicons were sequenced on an Illumina MiSeq instrument. The reads were aligned to the […] after eliminating those having low quality scores. The resulting files containing the reads were mapped to the reference genome (BAM files), where reads that overlapped the target region of interest were selected and the number of wild type reads versus the number of reads which contain an insertion, substitution, or deletion was calculated.\nThe editing percentage (e.g., the “indel efficiency” or “percent indels” or “% editing” or “% indel”) can be defined as the total number of sequence reads with insertions or deletions over the total number of sequence reads, including wild type.\nIn vivo editing efficiency for materials delivered with formulations including various amine lipid (or ionizable lipid) compounds in Experiments 1 through 14 as described in Tables 3 and 4 was assessed. Editing was measured using G000534 (SEQ ID NO: 5) which targets the rat TTR gene. […]"}, "[2]": {"settings": "sodium phosphate buffer, Table 2, unformulated amine lipid, TNS, read-out: Lipid pKa"}, "[3]": {"settings": "Experiment 14, 0.03 mpk, LNP with C13 Ether"}, "[4]": {"settings": "Experiment 7, 0.1 mpk, LNP with PEG2K-DMG"}}, "note": "Where two headings read alike, the source gives them in different places."}
{"smiles": "CCCCC/C=C\\C/C=C\\CCCCCCCC(=O)OCC(CCCCCCCCC(=O)OC(CCCC)CCCC)COC(=O)OCCCN(CC)CC", "note": "(stereo not drawn) [Compound 21, 2-((((3-(diethylamino)propoxy)carbonyl)oxy)methyl)-11-(nonan-5-yloxy)-11-oxoundecyl (9Z,12Z)-octadeca-9,12-dienoate]", "values": [{"measurement": "pKa", "setting": "[1]; [2]", "value": 6.2}]}
{"smiles": "CCCCCCCCC(CCCCCCCC)OC(=O)CCCCCC(=O)OCC(COC(=O)CCCCCC(=O)OC(CCCCCCCC)CCCCCCCC)COC(=O)NCCN(CC)CC", "note": "[Compound 38, O′1,O1-(2-((((2-(diethylamino)ethyl)carbamoyl)oxy)methyl)propane-1,3-diyl) 7,7′-di(heptadecan-9-yl) di(heptanedioate)]", "values": [{"measurement": "Mean % editing", "setting": "rat TTR gene; [3]", "value": 19.4, "unit": "%"}, {"measurement": "pKa", "setting": "[1]; [2]", "value": 6.56}]}
{"smiles": "CCCCCCCCC(CCCCCCCC)C(=O)OCCCC(=O)OCC(COC(=O)CCCOC(=O)C(CCCCCCCC)CCCCCCCC)COC(=O)NCCN(CC)CC", "note": "[Compound 39, [4-[2-[2-(diethylamino)ethylcarbamoyloxymethyl]-3-[4-(2-octyldecanoyloxy)butanoyloxy]propoxy]-4-oxo-butyl]2-octyldecanoate]", "values": [{"measurement": "Mean % editing", "setting": "rat TTR gene; [3]", "value": 11.3, "unit": "%"}, {"measurement": "pKa", "setting": "[1]; [2]", "value": 6.63}]}
{"smiles": "CCCCCCCCOC(CCC(=O)OCC(COC(=O)CC(CCCC)CCCCCC)COC(=O)NCCN(CC)CC)OCCCCCCCC", "note": "(stereo not drawn) [Compound 44, 3-((4,4-bis(octyloxy)butanoyl)oxy)-2-((((2-(diethylamino)ethyl)carbamoyl)oxy)methyl)propyl 3-butylnonanoate]", "values": [{"measurement": "Mean % editing", "setting": "rat TTR gene; [4]", "value": 59.8, "unit": "%"}]}
{"smiles": "CCCCCCCCOC(CCC(=O)OCC(COC(=O)CCCCCCCC)COC(=O)OCCCN(CC)CC)OCCCCCCCC", "note": "(stereo not drawn) [Compound 45, 3-((4,4-bis(octyloxy)butanoyl)oxy)-2-((((3-(diethylamino)propoxy)carbonyl)oxy)methyl)propyl Nonanoate]", "values": [{"measurement": "Mean % editing", "setting": "rat TTR gene; [4]", "value": 1.8, "unit": "%"}]}
{"smiles": "CCCCCCCCOC(CCC(=O)OCC(COC(=O)CCCCCCCC)COC(=O)NCCN(CC)CC)OCCCCCCCC", "note": "(stereo not drawn) [Compound 46, 3-((4,4-bis(octyloxy)butanoyl)oxy)-2-((((2-(diethylamino)ethyl)carbamoyl)oxy)methyl)propyl Nonanoate]", "values": [{"measurement": "Mean % editing", "setting": "rat TTR gene; [4]", "value": 0.2, "unit": "%"}]}
{"smiles": "CCCCCCCCOC(CCC(=O)OCC(COC(=O)OCCCN(CC)CC)COC(=O)C(CCCC)CCCCCC)OCCCCCCCC", "note": "(stereo not drawn) [Compound 47, 3-((4,4-bis(octyloxy)butanoyl)oxy)-2-((((3-(diethylamino)propoxy)carbonyl)oxy)methyl)propyl 2-butyloctanoate]", "values": [{"measurement": "Mean % editing", "setting": "rat TTR gene; [4]", "value": 56.3, "unit": "%"}]}
{"smiles": "CCCCC/C=C\\C/C=C\\CCCCCCCC(=O)OCC(COC(=O)CCCC(=O)OC(CCCCCCCC)CCCCCCCC)COC(=O)OCC1CCCN(CC)C1", "note": "(stereo not drawn) [Compound 62, 3-((((1-ethylpiperidin-3-yl)methoxy)carbonyl)oxy)-2-((((9Z,12Z)-octadeca-9,12-dienoyl)oxy)methyl)propyl heptadecan-9-yl glutarate]", "values": [{"measurement": "Mean % editing", "setting": "rat TTR gene; Table 8, 0.03 mpk, LNP with C13 Ether", "value": 28.0, "unit": "%"}]}
{"smiles": "CCCCCCCCC(CCCCCCCC)OC(=O)CCCCC(=O)OCC(COC(=O)CCCCC(=O)OC(CCCCCCCC)CCCCCCCC)COC(=O)OCCCN1CCCC1", "note": "[Compound 69, di(heptadecan-9-yl) O,O′-(2-((((3-(pyrrolidin-1-yl)propoxy)carbonyl)oxy)methyl)propane-1,3-diyl) diadipate]", "values": [{"measurement": "Mean % editing in rat liver", "setting": "rat TTR gene; NGS, dose 0.03 mpk, LNP with G000534 sgRNA and Cas9 mRNA 1:2 w/w, 3% C13 Ether (Compound 53: 3% PEG2K-DMG), N=5 (Compound 33: N=4)", "value": 7.3, "unit": "%"}, {"measurement": "pKa", "setting": "[1]; read-out: pKa", "value": 6.4}]}
